In patent US20260000642A1 (Tay Therapeutics Limited, priority 2022, published 2026):
Values belong to the compound of their own block, whether it stands above or below them.

Legend:
[1] = Sprague-Dawley rat pharmacokinetics (IV and PO); type: in vivo; conditions: male Sprague-Dawley rats, cassette mode, Method 1
Source text: BET protein inhibitors with a long half-life and good oral bioavailability in in vivo DMPK parameters are promising oral drug candidates. Some of the exemplary compounds of the current disclosure have a long half-life and good oral bioavailability in in vivo DMPK parameters in the Sprague-Dawley rat following intravenous (IV) and oral (PO) dosing. The experimental methods and results (Table 5) are provided hereinafter.
Sprague-Dawley Rat Pharmacokinetics, Method 1
Compounds were formulated in 5% DMSO, 40% PEG-400, 55% Milli-Q water at a concentration of 0.2 mg/mL for IV and at 0.5 mg/mL for PO. Two male Sprague-Dawley rats per arm were dosed with up to 5 compounds in cassette mode, which each compound being dosed at 1 mg/kg IV and 5 mg/kg PO. Blood was sampled at various timepoints and plasma isolated. 50 μL of plasma with 5 μL of blank Sprague-Dawley rat plasma were added to 200 μL of acetonitrile containing IS mixture. The samples were vortexed for 30 s. After centrifugation at 4 degrees Celsius, 3900 rpm for 15 min, the supernatant was diluted 3 times with water. 20 μL of diluted supernatant was injected into the LC/MS/MS system for quantitative analysis and concentration of analyte determined by comparison with matrix matched standard curve. WinNonlin (Phoenix™, version 8.3) or other similar software may be used for pharmacokinetic calculations.

[2] = Intrinsic clearance in liver microsomes, rat; type: in vitro ADME; conditions: pH 7.4, rat liver microsomes 0.5 mg/mL, Method 1, read-out: Half-Life (T1/2) (min) Rat
Method: (§1) BET protein inhibitors with a long half-life in liver microsomes from various species are in some embodiments promising oral drug candidates. Some of the exemplary compounds of the current disclosure have a long half-life in liver microsomes, expressed in minutes. The experimental methods and results (Table 3) are provided hereinafter.
(§2) Intrinsic Clearance in Liver Microsomes Assay, Method 1
(§3) From stock solution of compound on 10 mM DMSO, a working solution of 0.1 mM is prepared by diluting the compound in DMSO. 6.25 μL of a 20 mg/mL solution of microsomes in PBS pH 7.4 buffer is added to 216.25 μL PBS pH 7.4 buffer (final microsome concentration—0.5 mg/mL). 25 μL of 10 mM solution of NADPH in PBS pH 7.4 buffer is added to the incubations (final NADPH concentration—1 mM). The mixture is pre-warmed to 37° C. for 10 minutes. 2.5 μL of test compound working solution is added (final compound concentration—1 μM with 1% DMSO). […] The percent compound remaining at each time point is calculated with respect to that of the 0.5 min sample. The data are analysed to calculate half-life. […]
(§4) A 50 mM stock solution (in DMSO) is prepared for the compound. […] The samples are centrifuged, and the supernatants analysed by LC-MS/MS. The percent compound remaining at each time point is calculated with respect to that of the 0 min sample. The data are then analysed to calculate half-life and intrinsic clearance (CLint). […]

[3] = Plasma stability assay, rat plasma; type: in vitro ADME; conditions: 37° C.
Method: Exemplary compounds of the disclosure are stable upon incubation in mouse plasma. Stability is expressed as a % remaining after 120 minutes. The experimental methods and results (Table 2) are provided hereinafter.
Plasma Stability Assay, Method 1
From stock solution of compound in 10 mM DMSO, a working solution of 1 mM is prepared by diluting the compound in DMSO. To 398 μL of plasma pre-warmed at 37° C. for 15 minutes), 2 μL of working solution of compound is added, resulting in a final concentration of 5 μM (0.5% DMSO) for the compound. The sample is then incubated at 37° C. Aliquot is withdrawn at specified time-points (0, 15, 30, 60 and 120 mins). The reaction is stopped by addition of 450 μL cold acetonitrile containing internal standard (IS). […] Aliquots of the supernatant is analysed using LC-MS/MS. The percent remaining of the compound at each time point is calculated with respect to the control sample (0 min time-point).
Plasma Stability Assay, Method 2
A working solution of compound (500 μM) is prepared in DMSO (100%). To 735 μL of plasma, 15 μL of working solution of compound is added—resulting in a final concentration of 10 μM (2% DMSO) for the compound. The sample is then incubated at 37° C. Aliquot is withdrawn at time-points—0, 15, 30, 60, 90 and 120 mins. The reaction is stopped by using chilled acetonitrile containing internal standard (IS). The samples are centrifuged and the supernatants analyzed using LC-MS/MS. The percent remaining of the compound at each time point is calculated with respect to the control sample (0 min time-point).

[4] = Plasma stability assay, human plasma; type: in vitro ADME; conditions: 37° C., Method 1 (5 μM)
[5] = Intrinsic clearance in liver microsomes, mouse; type: in vitro ADME; conditions: pH 7.4, mouse liver microsomes 0.5 mg/mL, Method 1, read-out: Half-Life (T1/2) (min) Mouse
Method: as §1, §2, §3, §4

IL-17A = assay: Human PBMC assay, IL-17A by ELISA (CD2/CD3/CD28 bead stimulation); type: cell-based; conditions: 72 hours
Method: (§5) CD2, CD3, and CD28 antibody-coated beads from the T-cell activation/expansion kit (Miltenyi Biotec) were added to the PBMC at a bead-to-cell ratio of 1:2. The mixture of PBMCs and beads were seeded into the wells of the round-bottom 96-well plate at a concentration of 2×10^5 cells/well in a total volume of 200 μL. The cells were cultured for 72 hours at 37° C. and 5% CO2 and then supernatants were collected and IL-17A and IL-22 levels were measured by ELISA. […] The final compound concentration ranged from 30,000 nM to 0.005 nM and the final DMSO concentration per well was 0.3%. PBMCs were seeded at approximately […] in the wells of the 96-well tissue culture plate in a total volume of 190 μL. The plate was incubated for 1 hour at 37° C. and 5% CO2. […] The cells were then cultured for 24 hours at 37° C. and 5% CO2. The supernatant was collected and CXCL10 levels were measured by ELISA.

CXCL10 = assay: Human PBMC assay, CXCL10 by ELISA (IFN-γ stimulation); type: cell-based
Method: The impact of Examples 23, 80, and 101 on IL-17A, IL-22, and CXCL10 levels was analyzed in cryopreserved human peripheral blood mononuclear cells (PBMC) by ELISA.
For IL-17A and IL-22 assays, Examples 23, 80, and 101 were serially diluted from 10 mM in DMSO and further diluted in assay media to 100× the required final concentration, of which, 2 μL was added per well to a round-bottom 96-well tissue culture plate where the final DMSO concentration per well was 0.1%. CD2, CD3, and CD28 antibody-coated beads from the T-cell activation/expansion kit (Miltenyi Biotec) were added to the PBMC at a bead-to-cell ratio of 1:2. The mixture of PBMCs and beads were seeded into the wells of the round-bottom 96-well plate at a concentration of 2×10^5 cells/well in a total volume of 200 μL. The cells were cultured for 72 hours at 37° C. and 5% CO2 and then supernatants were collected and IL-17A and IL-22 levels were measured by ELISA. For the CXCL10 assay, Examples 23, 80, and 101 were serially diluted from 10 mM in DMSO and further diluted in assay media to 100× the required final concentration, of which 2 μL was added per well to a 96-well tissue culture plate. The final compound concentration ranged from 30,000 nM to 0.005 nM and the final DMSO concentration per well was 0.3%. PBMCs were seeded at approximately […] in the wells of the 96-well tissue culture plate in a total volume of 190 μL. The plate was incubated for 1 hour at 37° C. and 5% CO2. The cells were then stimulated with IFN-γ (15 ng/mL final concentration) in a volume of 10 μL. The cells were then cultured for 24 hours at 37° C. and 5% CO2. The supernatant was collected and CXCL10 levels were measured by ELISA.

IL-22 = assay: Human PBMC assay, IL-22 by ELISA (CD2/CD3/CD28 bead stimulation); type: cell-based; conditions: 72 hours
Method: as §5

BRD4 BD1 = biological target: T1, BRD4 BD1 (Homo sapiens, UniProt O60885); assay: NanoBRET bromodomain assay, NanoLuc-BRD4-BD1 fusion vector in HEK293 cells; type: cell-based; conditions: top concentration 10 μM
T1 construct: HEK293 cells were transfected using NanoLuc-BRD4-BD1 or NanoLuc-BRD4-BD2 fusion vectors; host or cells: HEK293
Source text: (§6) Bromodomain Assay Procedure

BRD4 BD2 = biological target: T2, BRD4 BD2 (Homo sapiens, UniProt O60885); assay: NanoBRET bromodomain assay, NanoLuc-BRD4-BD2 fusion vector in HEK293 cells; type: cell-based; conditions: NanoBRET, HEK293 cells, top concentration 10 μM
T2 construct: HEK293 cells were transfected using NanoLuc-BRD4-BD1 or NanoLuc-BRD4-BD2 fusion vectors; host or cells: HEK293
Source text: as §6

bioavailability ([1]; rat, plasma, PO 5 mg/kg (IV 1 mg/kg), read-out: PO F (%)): 60% | half-life at 1 μM [2]: > 60 min | Plasma Stability (% remaining at 120 minutes) Rat ([3]; Method 1 (5 μM)): >99% | Plasma Stability (% remaining at 120 minutes) Human [4]: >99% | half-life at 1 μM [5]: 70 min
SMILES: CNC(=O)c1[nH]c(C(=O)N[C@H]2CC[C@H](O)CC2)cc1O[C@@H](C)c1ccccc1 (single isomer, unassigned) [Example 97]

IC50 for IL-17A relative to GSK620 (IL-17A): decreased mean 1050 | IC50 for IL-22 relative to GSK620 (IL-22): decreased mean 1050
SMILES: CNC(=O)c1[nH]c(-c2ncc(C)[nH]2)cc1O[C@@H](C)c1ccccc1 [Example 23, (S)—N-methyl-5-(5-methyl-1H-imidazol-2-yl)-3-(1-phenylethoxy)-1H-pyrrole-2-carboxamide]
selectivity to induction of CXCL10 relative to IL-17A and IL-22 (CXCL10): showed selectivity

IC50 for IL-17A relative to GSK620 (IL-17A): increased mean 1050 | IC50 for IL-22 relative to GSK620 (IL-22): decreased mean 1050
SMILES: CNC(=O)c1[nH]c(-c2cnn(C(C)C)c2)cc1O[C@@H](C)c1ccccc1 [Example 80, (S)-5-(1-isopropyl-1H-pyrazol-4-yl)-N-methyl-3-(1-phenylethoxy)-1H-pyrrole-2-carboxamide]
selectivity to induction of CXCL10 relative to IL-17A and IL-22 (CXCL10): showed selectivity

IV T1/2 ([1]; IV 1 mg/kg): 0.6 h | PO F (%) ([1]; PO 5 mg/kg (IV 1 mg/kg)): 15% | IC50 (BRD4 BD1): ≥ 10000 nM | Plasma Stability (% remaining at 120 minutes) Rat ([3]; Method 2 (10 μM)): 81% | IC50 (BRD4 BD2): 50 to 200 nM
SMILES: CNC(=O)c1[nH]c(C(=O)NC2COC2)cc1OC(C)c1ccc(Cl)cc1 (single isomer, unassigned) [Example 31, 3-(1-(4-chlorophenyl)ethoxy)-N^2-methyl-N^5-(oxetan-3-yl)-1H-pyrrole-2,5-dicarboxamide]
